Measurements from patent US20240158386A1, “BENZOXAZOLONE INHIBITORS OF INFLAMMASOMES” (ICAHN SCHOOL OF MEDICINE AT MOUNT SINAI, priority 2021, published 2024).

What was measured:
NLRP3 inflammasome = target: T1, NLRP3 inflammasome (Mus musculus, UniProt Q8R4B8); experiment: NLRP3 inflammasome activation assay: IL-1β release by primary microglia after LPS and ATP; assay type: cell-based, murine; details: for inhibition of IL-1β release upon NLRP3 activation: 100 μM compound; for inhibition of IL-1β release upon NLRP3 activation / IC50: microglia, LPS and ATP; for IC50: IL-1β release, nonlinear fit of dose-response, read-out: IC50; for remaining activity at 100 µM: microglia cultures pretreated with 100 μM compound before NLRP3 activation with LPS and ATP, read-out: % Residual activity (percentage of IL-1β, referred to control)
T1 construct: endogenous in cells; host or cells: primary microglia from cortices of 2-3 day old WT mouse pups
Method: Murine primary microglia. Mixed cortical cultures were prepared as previously described (Bronstein, R. et al. J. Vis. Exp. JoVE 50647 (2013) doi:10.3791/50647). Briefly, cortices from 2-3 days old, WT, or NLRP3 KO pups were isolated, digested, and seeded at a density of 8 cortices per 10 ml petri dish. Every three days, the medium was replaced by fresh culture medium (DMEM, 10% FBS, 1% penicillin-streptomycin). After three weeks, mixed glial cultures had reached confluence, and microglia cells were isolated by mild trypsinization as previously described (Saura, J. et al. Glia 44, 183-189 (2003)). In brief, cells were washed with culture medium without FBS and treated with a mixture of trypsin 0.25% (without EDTA) and DMEM-F12 medium in a 1:3 proportion. After an incubation period of approximately 40 min, an intact layer of mixed glial cells detached, leaving microglia attached firmly to the bottom of the Petri-dish. Pure microglia were then isolated by 15 min incubation with trypsin (0.05%)-EDTA at 37° C., followed by gentle shaking. Cells were counted and seeded at the desired density, typically 7.5·10^4 cells/well in 24 well-plates.
NLRP3 inflammasome activation assay. Primary microglia cultures were incubated with the compounds that inhibited IL-1β production in THP1 macrophages. Cells pretreated with 100 μM of the compounds—or with the same DMSO volume, in the case of control samples—were primed with 400 ng/ml LPS for 3 hours, and activated with 4.5 mM ATP for 45 minutes or […] nigericin for 1 hour. Dose-response curves were conducted by incubating microglia cultures with different concentrations of the selected compounds, ranging from 0.001 to 100 μM, 1 hour before NLRP3 activation with LPS and ATP. Supernatants were collected for IL-1β and toxicity assessments.
(§1) Cytokine quantification. IL-1β in cell supernatants and brain tissue samples—after the different treatment groups—was quantified using the Mouse IL-1 beta/IL-1F2 DuoSet ELISA kit (R&D systems), IL-6 in cell culture supernatant was measured through the Mouse IL-6 ELISA kit (ThermoFisher), TNF-α in cell culture supernatants was determined using the Mouse TNF-alpha DuoSet ELISA (R*D systems), and IL-18 in brain tissue was measured through the IL-18 Mouse ELISA Kit (Invitrogen) following the manufacturers' recommended protocol. IL-1β precursor and cleaved IL-1β in the FC of mice treated with vehicles, LPS, or C77-LPS was assessed by western blot. All samples were run in technical duplicates.

NLRC4 inflammasome = target: T2, NLRC4 inflammasome (Mus musculus, UniProt Q3UP24); experiment: NLRC4 inflammasome activation assay: IL-1β release, microglia from NLRP3 KO mice, LPS and flagellin; assay type: cell-based; details: 10 μM; microglia from NLRP3 KO mice, LPS and flagellin
T2 construct: endogenous in cells; host or cells: primary microglia from NLRP3 KO mice
Method: AIM2, NLRP7, and NLRC4 inflammasomes activation assays. […] AIM2 inflammasome activation was induced through the addition of 100 ng/ml LPS for 2 hours, followed by transfection of 1 μg poly(dA:dT) using Lipofectamine 2000 during 2 hours, following the manufacturer recommendations. NLRC4 was activated by treatment with 150 ng/ml LPS for 2 hours, before transfection of 1 μg flagellin during 2 hours, using lipofectamine 2000 as transfection reagent. Negative and positive controls were pre-treated with the same DMSO percentage as cells treated with the inhibitors. Negative controls were kept untreated after DMSO addition, while LPS-poly(dA:dT) or LPS-flagellin was added to positive controls for AIM2, and NLRC4 activation, respectively. For activation of the NLRP7 inflammasome different conditions were assessed: treatment of WT microglia cultures with 400 ng/ml fibroblast-stimulating lipopeptide-1 (fsl-1) for 7 hours, priming with 150 ng/ml LPS for 1 hour and treatment with 400 ng/ml fsl-1 for 7 hours, and priming with 150 ng/ml LPS and transfection of 400 ng/ml fsl-1 with lipofectamine. MCC950 was used as a negative control for NLRC4 and AIM-2 inhibition. Cells were pretreated with 5 μM MCC950 before LPS addition, and 2 hours later the NLRC4 and AIM-2 activation was induced through addition of their specific activators. Cell supernatants were collected for IL-1β measurement.
as §1

[1] = system: ASC specks following NLRP3 activation; experiment: ASC speck formation / ASC oligomerization in m-Cerulean ASC labeled macrophages; assay type: cell-based, murine; details: 10 μM pretreatment, LPS and ATP, compared with DMSO-treated cells
Method: m-Cerulean ASC labeled macrophages. NLRP3 Knock Out immortalized murine macrophages, stably expressing m-Cerulean-ASC, and NLRP3-Flag were a kind donation of Prof. Eicke Latz, (Institute of Innate Immunity, University of Bonn, Germany). Murine macrophages were maintained in high glucose DMEM medium supplemented with 10% FBS, 1% sodium pyruvate, and passaged every 2-3 days, before reaching confluence.
For ASC speck formation evaluation, murine macrophages were seeded in 96 well SCREENSTAR black microplates with clear base, 24 hours before stimulation. Then, cells were incubated for 1 hour with different concentrations of the inhibitors, or with the same DMSO volume for positive and negative controls for NLRP3 activation—DMSO-LPS-ATP or only DMSO, respectively. 0.5 μM MCC950 was used as a positive control for inhibition of NLRP3-mediated ASC oligomerization. NLRP3 activation was induced through treatment with 250 ng/ml LPS for 2.5 hours, followed by addition of 4.5 mM ATP for 45 min. Cells were then fixed and counterstained in a single step, as previously described (Stutz, A. et al. ASC Speck Formation as a Readout for Inflammasome Activation. in The Inflammasome (eds. De Nardo, C. M. & Latz, E.) vol. 1040 91-101 (Humana Press, 2013).). For that, a stock solution of DRAQS in formaldehyde was used, being the final concentrations 1% formaldehyde and 2.5 μM DRAQ5.
ASC oligomerization determination. […] ASC specks in cells pretreated with C75, C77, C78, and C97, before NLRP3 activation (as above indicated), were visualized with a widefield Leica DMi8 fluorescence microscope, using the 20× objective. […] For image analysis and speck quantification, ImageJ was used https://imagej.nih.gov/ij/index.html. Speck and nuclei quantification was performed as previously described in Stutz et al. When required (overlapping nuclei), the watershed separation algorithm was used to separate the particles. […] The rate of speck positive cells was calculated by normalizing the number of speck positive cells to the number of nuclei. […]

T1 sequence (Q8R4B8 whole entry): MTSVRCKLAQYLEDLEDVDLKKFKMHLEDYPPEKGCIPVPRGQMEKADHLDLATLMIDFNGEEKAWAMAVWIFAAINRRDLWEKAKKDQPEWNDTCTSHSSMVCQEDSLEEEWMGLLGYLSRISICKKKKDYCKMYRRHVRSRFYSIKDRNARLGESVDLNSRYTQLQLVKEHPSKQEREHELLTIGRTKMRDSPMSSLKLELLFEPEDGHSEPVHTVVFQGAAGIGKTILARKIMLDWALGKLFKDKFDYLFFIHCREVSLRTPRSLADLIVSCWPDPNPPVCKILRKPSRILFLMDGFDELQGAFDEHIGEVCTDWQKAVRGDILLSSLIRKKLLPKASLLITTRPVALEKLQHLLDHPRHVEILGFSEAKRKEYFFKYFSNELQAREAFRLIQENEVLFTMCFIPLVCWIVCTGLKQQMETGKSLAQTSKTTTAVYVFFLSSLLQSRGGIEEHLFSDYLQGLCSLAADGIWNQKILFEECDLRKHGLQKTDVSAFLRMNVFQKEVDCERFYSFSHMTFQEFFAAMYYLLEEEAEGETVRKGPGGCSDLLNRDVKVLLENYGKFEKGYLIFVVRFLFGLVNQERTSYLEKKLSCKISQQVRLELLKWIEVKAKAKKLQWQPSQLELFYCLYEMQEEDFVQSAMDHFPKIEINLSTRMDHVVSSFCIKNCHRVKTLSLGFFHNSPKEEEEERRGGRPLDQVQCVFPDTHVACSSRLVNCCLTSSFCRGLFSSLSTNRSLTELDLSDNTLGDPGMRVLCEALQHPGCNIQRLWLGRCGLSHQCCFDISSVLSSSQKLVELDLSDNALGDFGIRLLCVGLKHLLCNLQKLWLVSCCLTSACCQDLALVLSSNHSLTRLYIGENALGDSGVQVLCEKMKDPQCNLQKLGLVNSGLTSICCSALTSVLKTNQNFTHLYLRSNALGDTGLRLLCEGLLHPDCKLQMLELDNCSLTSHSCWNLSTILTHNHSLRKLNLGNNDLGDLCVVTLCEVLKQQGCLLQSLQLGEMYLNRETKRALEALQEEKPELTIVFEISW
T2 sequence (Q3UP24 whole entry): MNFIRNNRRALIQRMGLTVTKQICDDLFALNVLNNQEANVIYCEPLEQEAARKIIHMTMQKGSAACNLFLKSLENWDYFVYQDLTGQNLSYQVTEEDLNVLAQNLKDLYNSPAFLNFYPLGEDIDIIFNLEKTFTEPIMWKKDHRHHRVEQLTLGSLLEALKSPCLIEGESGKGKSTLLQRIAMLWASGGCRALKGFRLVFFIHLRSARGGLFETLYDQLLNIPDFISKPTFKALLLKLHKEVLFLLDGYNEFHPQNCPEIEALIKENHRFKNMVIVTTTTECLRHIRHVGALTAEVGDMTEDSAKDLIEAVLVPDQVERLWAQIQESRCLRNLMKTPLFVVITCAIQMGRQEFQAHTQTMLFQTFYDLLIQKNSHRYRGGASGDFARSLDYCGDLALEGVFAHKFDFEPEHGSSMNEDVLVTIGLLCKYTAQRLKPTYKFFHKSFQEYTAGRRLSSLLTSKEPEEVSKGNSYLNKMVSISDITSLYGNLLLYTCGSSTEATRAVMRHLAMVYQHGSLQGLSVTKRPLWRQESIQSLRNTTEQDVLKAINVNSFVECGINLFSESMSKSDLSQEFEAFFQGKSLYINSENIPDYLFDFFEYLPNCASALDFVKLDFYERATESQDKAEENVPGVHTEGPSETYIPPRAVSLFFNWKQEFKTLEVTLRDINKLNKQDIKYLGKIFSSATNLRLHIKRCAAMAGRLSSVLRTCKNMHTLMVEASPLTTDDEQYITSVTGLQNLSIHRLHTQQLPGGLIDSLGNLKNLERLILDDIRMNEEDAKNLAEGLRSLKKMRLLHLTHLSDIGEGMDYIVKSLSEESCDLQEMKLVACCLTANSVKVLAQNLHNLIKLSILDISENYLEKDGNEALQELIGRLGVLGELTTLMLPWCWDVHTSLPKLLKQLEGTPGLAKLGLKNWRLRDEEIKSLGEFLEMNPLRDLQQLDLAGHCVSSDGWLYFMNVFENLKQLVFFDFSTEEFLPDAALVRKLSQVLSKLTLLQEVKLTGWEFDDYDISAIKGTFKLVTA

Row | inhibition of IL-1β release upon NLRP3 activation (NLRP3 inflammasome) | IC50 (NLRP3 inflammasome) [µM] | remaining activity at 100 µM (NLRP3 inflammasome) [%] | Compound | inhibition of NLRC4-mediated IL-1β production (NLRC4 inflammasome) | rate of ASC speck positive cells [1]
1 | completely prevented IL-1β secretion | 8.26 ± 1.16 | 0 | O=C(Cn1c(=O)oc2ccccc21)NCCn1cc(-c2ccoc2)cn1 [Compound C78, N-(2-(4-(furan-3-yl)-1H-pyrazol-1-yl)ethyl)-2-(2-oxobenzoidloxazol-3(2H)-yl)acetamide] | presented inhibitory power against the NLRC4 inflammasome | significantly reduced
2 | completely prevented IL-1β secretion | 9.24 ± 1.06 | 0 | O=C(Cn1c(=O)oc2ccccc21)NCC(O)(c1ccoc1)c1ccco1 (stereo not shown) [Compound C75] | presented inhibitory power against the NLRC4 inflammasome | significantly reduced
